Values of other authors, collected in Sander's compilation of Henry's law constants (doi:10.1093/bja/45.3.282).

Assay: Henry solubility constant Hcp at 310 K (mol/(m3 Pa))
Details: reference: Steward et al. (1973); cited value

Henry solubility constant Hcp at 310 K | SMILES
8.1e-05 | C1CC1 [cyclopropane]
0.0017 | COC(F)(F)C(Cl)Cl [2,2-dichloro-1,1-difluoro-1-methoxyethane]
0.00018 | [N-]=[N+]=O [dinitrogen monoxide]
3.5e-05 | C=C [ethene]
0.00024 | FC(F)OC(Cl)C(F)(F)F (centres undefined) [1-chloro-2,2,2-trifluoroethyl difluoromethyl ether]
3.3e-05 | [Xe] [xenon]
0.00047 | CCCl [chloroethane]
0.00033 | C=COCC(F)(F)F [(2,2,2-trifluoroethoxy)-ethene]
2e-05 | [Kr] [krypton]
0.00031 | FC(F)(F)C(Cl)Br (centres undefined) [1-bromo-1-chloro-2,2,2-trifluoroethane]

SMILES | Henry solubility constant Hcp at 310 K
ClC=C(Cl)Cl [trichloroethene] | 0.00066
CCOCC [diethyl ether] | 0.005
C=COC=C [divinyl ether] | 0.00054
FC(F)OC(F)(F)C(F)Cl (centres undefined) [2-chloro-1,1,2-trifluoroethyl difluoromethyl ether] | 0.0003
